Assay results: a melting point compilation (Tetko et al.)

| Structure (SMILES) | melting point [°C] |
| --- | --- |
| O=C(O)CCn1ccc2ccccc21 | 49 to 51 |
| Cc1cc(C#N)ccc1O | 89 to 91 |
| Cc1[nH]c2ccccc2c(=O)c1C(C)C | 299 to 301 |
| COc1ccc(C(N)c2cccc(S(C)(=O)=O)c2)cc1 (configuration not stated) | 80 to 82 |
| NC(=O)c1ccc(N2CCSCC2)c(N)c1 | 196 to 198 |
| O=C(c1ccc(Br)c([N+](=O)[O-])c1)N1CCOCC1 | 114 to 116 |
| O=C(COc1ccccc1C(=O)O)Nc1cccc(C(F)(F)F)c1 | 243 to 245 |
| Cc1nnc(-c2ccc(N)cc2)o1 | 195 to 197 |
| CC(CC(=O)O)c1ccccc1C(F)(F)F (configuration not stated) | 76 to 78 |
| CC1CNc2ccccc2CN1C(=O)OC(C)(C)C (configuration not stated) | 158 to 160 |
| Brc1cnc2nccnc2c1 | 158 to 160 |
| Cc1ccc(-n2[nH]c(-c3ccco3)cc2=N)cc1 | 93 to 95 |
| Cc1ccnc2nc(C(=O)O)nn12 | 240 to 242 |
| CCN(CC)S(=O)(=O)c1ccc(N2CCCCC2)c(C(=O)O)c1 | 157 to 159 |
| COC(=O)c1ccc(OCc2ccccc2)c(N)c1 | 96 to 98 |
| Nc1nnc(NS(=O)(=O)c2ccccc2)[nH]1 | 303 to 305 |
| O=S(=O)(Cl)c1ccc2nc(Cl)c(Cl)nc2c1 | 88 to 90 |
| Cc1nn(CCO)c(N)c1C | 129 to 131 |
| Cc1nc(N)cc(Cl)n1 | 191 to 193 |
| COC(=O)c1cc(S(=O)(=O)Cl)cc(F)c1F | 56 to 58 |
| O=C(O)CC1=NN(c2ncc(C(F)(F)F)cc2Cl)C(=O)C1 | 173 to 175 |
| CN1C(=O)CCC(C(=O)O)C1c1cnn(C)c1 (configuration not stated) | 225 to 227 |
| O=C(NC(Cc1ccccc1)C(=O)O)c1ccc(Cl)cc1 (configuration not stated) | 195 to 197 |
| CN(C)c1ncncc1N | 97 to 99 |
| Cc1cc(-c2csc(N)n2)c(C)o1 | 89 to 91 |
| Clc1ccc(Cl)c(OCCBr)c1 | 57 to 59 |

| Structure (SMILES) | melting point [°C] |
| --- | --- |
| O=[N+]([O-])c1ccc(OCCO)cc1C(F)(F)F | 62 to 64 |
| CC(Cl)C(=O)NCc1ccccc1Cl (configuration not stated) | 88 to 90 |
| c1ccc2c(c1)NCCN2C1CC1 | 58 to 60 |
| COC(=O)c1cc(Cl)c2cc(Br)ccc2n1 | 163 to 165 |
| O=C(O)c1cccc(C(F)F)c1 | 125 to 127 |
| Nc1nc(-c2cccc([N+](=O)[O-])c2)cs1 | 186 to 188 |
| CC(C)CCNC(=O)CC(=O)NCCC(C)C | 69 to 71 |
| Cc1cc(C(=O)O)nn1-c1cccc(C#N)c1 | 249 to 251 |
| O=S(=O)(c1ccc(Cl)c(Cl)c1)N1CCNCC1 | 125 to 127 |
| O=C(O)c1csc(Nc2ccccn2)n1 | 298 to 300 |
| N#Cc1ccc(-n2cc(C#N)c(N)n2)c(F)c1 | 258 to 260 |
| NNC(=O)Cc1ccc(Cl)cc1 | 165 to 167 |
| CC(C)C(CN)C(=O)O (configuration not stated) | 249 to 251 |
| O=C1CCCc2c(Br)cccc21 | 50 to 52 |
| COc1ccc(NC(=O)c2ccccc2N)cn1 | 129 to 131 |
| Cc1cc(C)n(C(C)C(=O)Nc2ccc(N)cc2Cl)n1 (configuration not stated) | 198 to 200 |
| COc1ccc(C(=O)O)cc1S(=O)(=O)N1CC(C)CC(C)C1 (configuration not stated) | 262 to 264 |
| Cc1ccc(-c2ccc(C(=O)O)c(F)c2)cc1C | 213 to 215 |
| COc1cc(C(=O)O)cc(Cl)c1OC(C)C | 156 to 158 |
| O=Cc1coc2ccc(F)cc2c1=O | 95 to 97 |
| CN(C)C(=O)c1ccc(Cl)c(N)c1 | 76 to 78 |
| COc1ccc(-n2c(N)nc3ccccc32)cc1 | 181 to 183 |
| Cc1cc2ccc(Cl)cc2nc1NN | 169 to 171 |
| C=CCNC(=O)c1ccc(N)cc1 | 78 to 80 |
| O=C(O)c1ccc2c(=O)n(-c3ccccc3F)c(=O)[nH]c2c1 | 343 to 345 |
| Cc1csc(-c2no[nH]c2=N)n1 | 147 to 149 |

| Structure (SMILES) | melting point [°C] |
| --- | --- |
| Nc1ccc(C(=O)N2CCCCC2)nc1 | 170 to 172 |
| CCNc1ccc(S(=O)(=O)C(F)(F)F)cc1N | 149 to 151 |
| CC(O)C(C)c1ccc2ccccc2n1 (configuration not stated) | 69 to 71 |
| Nc1ccc(Sc2cccs2)cn1 | 77 to 79 |
| Cc1ccccc1-c1nnc(N)o1 | 160 to 162 |
| Cc1ccc(-n2ncc(Cl)c(Cl)c2=O)cc1Cl | 206 to 208 |
| Cn1cnnc1Sc1ccc(N)cc1 | 153 to 157 |
| NCc1nnc2n1CCCC2 | 99 to 101 |
| Cc1nc(CCC(=O)O)oc1-c1ccccc1 | 162 to 164 |
| COc1ccc(C(CN)c2c[nH]c3ccccc23)cc1 (configuration not stated) | 127 to 129 |
| O=C1OCCN1c1ccc(O)cc1 | 177 to 179 |
| O=C(O)C1(OCc2ccccc2)CCOCC1 | 69 to 71 |
| O=c1[nH]cnc2sc3c(c12)CCCCC3 | 107 to 109 |
| NC(=O)C1CN(C(=O)CCl)c2ccccc2O1 (configuration not stated) | 133 to 135 |
| CN(C)Cc1c(O)ccc2c1CCCC2 | 77 to 79 |
| CCOc1ccccc1C(=O)NC(C(=O)O)C(C)C (configuration not stated) | 127 to 129 |
| COc1cc(C(=O)O)cc(NS(C)(=O)=O)c1OC | 214 to 216 |
| C1CCc2nnc(CN3CCNCC3)n2CC1 | 158 to 162 |
| Cc1cc(NC(=O)C2CCCCC2C(=O)O)[nH]n1 (configuration not stated) | 114 to 116 |
| O=C(CCl)N1CCc2ccccc21 | 118 to 120 |
| Cc1ccc(C(=O)N(C)C)cc1O | 153 to 155 |
| O=C1CCN(c2ccccc2)C1 | 94 to 96 |
| CCc1cccc2c(C(=O)CC#N)c[nH]c12 | 178 to 180 |
| Cc1nc(Cc2ccccn2)sc1C(=O)O | 189 to 191 |
| O=C(O)c1cccc(OCc2ccc(Cl)cc2)c1 | 171 to 173 |
| Cc1oc(C(=O)O)cc1C(=O)CCl | 206 to 208 |

| Structure (SMILES) | melting point [°C] |
| --- | --- |
| CSCc1cc(C(=O)O)sc1C | 135 to 137 |
| CC(C)c1ccc(S(=O)(=O)NCCC(=O)O)cc1 | 195 to 205 |
| O=c1[nH]ccc2occc12 | 193 to 195 |
| O=C(O)c1cccc(=O)[nH]1 | 239 to 241 |
| Cc1ccc([N+](=O)[O-])cc1S(=O)(=O)N1CCC(C(=O)O)CC1 | 107 to 109 |
| OCc1cc(Cl)c2nccn2c1 | 169 to 171 |
| Cc1noc(C)c1CC(=O)O | 117 to 119 |
| COc1cc(OC)c(S(N)(=O)=O)cc1Br | 257 to 259 |
| NNC(=O)NCc1ccco1 | 88 to 90 |
| N#Cc1cnn(-c2ccc(Br)cc2)c1N | 177 to 179 |
| N#CCc1ccc2ccccc2n1 | 45 to 47 |
| O=c1c2sc(-c3ccccc3)cc2nc(S)n1Cc1ccccc1 | 313 to 315 |
| CN(CCO)CCC(=O)O | 89 to 91 |
| OC(CNC1CC1)c1ccc(F)cc1 (configuration not stated) | 84 to 86 |
| COc1ccc(OC)c(-c2nn(-c3ccccc3)cc2C(=O)O)c1 | 174 to 176 |
| COC(=O)C1CN(CC#N)CCO1 (configuration not stated) | 79 to 81 |
| O=C(O)C1CCCN1C(=O)c1ccncc1 (configuration not stated) | 79 to 81 |
| Cc1noc(C(F)(F)F)c1C(=O)O | 140 to 142 |
| CN(C)c1cc(N)ccn1 | 146 to 148 |
| CN(CCC#N)c1ccc(C=O)cc1 | 70 to 74 |
| CS(=O)(=O)c1ccccc1CC(=O)O | 154 to 156 |
| COCCOc1ccc(C#N)cn1 | 39 to 41 |
| O=C(O)CSCc1nc2scc(-c3cccs3)c2c(=O)[nH]1 | 148 to 150 |
| Nc1nc(N2CCOCC2)ns1 | 187 to 189 |
